# Tested on: fibroblasts (dermal papilla, connective sheath, dermal)
# Experiment: Assaying of sulfated glycosaminoglycans in fibroblast culture (Blyscan)
# Type: cell-based, human
# Details: 7 days
# Procedure: The fibroblasts are cultured in DMEM medium, 10% foetal calf serum (Gibco, Invitrogen), 1 mM MEM pyruvate (Gibco, Invitrogen) and 25 units/ml of penicillin-streptomycin (Gibco, Invitrogen). The dermal papilla fibroblast (P6), connective sheath fibroblast (P6) and dermal fibroblast are then counted using a Coulter Counter Z2 (Beckman Coulter inc., Fullerton, USA) and seeded at 2×10^5 cells per well in a 12-well plate, with the wells containing 1.5 ml of medium alone, which is the “control” condition, or being treated with 3 mM of 1,5-anhydro-6,8-dideoxy-L-glucooctitol. After 7 days, the supernatant is recovered and stored at −80° C. until the GAGs are assayed. […]
# The proteins present in the lysate are assayed using the Dc Protein assay kit (Biorad). The amount of glycosaminoglycans is measured in the supernatant and the lysate.
# The glycosaminoglycans are assayed using the Blyscan glycosaminoglycan isolation & concentration kit (Biocolor, Newtownabbey, Northern Ireland) and the Blyscan sulfated glycosaminoglycan assay kit. […] Each sample to be measured is mixed with 700 μl of the cetylpyridinium chloride solution in a 1.5 ml centrifuge tube, and then incubated on a rotary mixer thermostated at 37° C., at 250 rpm, for 2 hours. […] The absorbance of the solution at 656 nm is measured using a polystyrene semi-microcuvette on a Biomate 5 spectrometer (Thermo). […]
smiles,measurement,setting,value
"CC(O)CC1OCC(O)C(O)C1O [1,5-anhydro-6,8-dideoxy-L-glucooctitol]",increase in amount of glycosaminoglycans secreted,"relative to control (medium alone), 3 mM in method",up to 7 times
same,GAG synthesis by the fibroblasts,versus control (medium alone),"increase in GAG synthesis by the fibroblasts, proportional to the concentration"

# Source: US20100310488A1, “SELECTING/IDENTIFYING AND ADMINISTERING ACTIVE AGENTS USEFUL FOR MODIFYING THE SHAPE OF KERATIN/HAIR FIBERS” (L'OREAL, priority 2007, published 2010)
